Experimental data reported in patent US12692253B2, “Antimicrobial compounds and methods” (Curza Global, LLC, priority 2019, dated 2026).
Read-outs that look alike come from different tables or passages of the source.

Legend:
[1] = system: E. coli S30 extract (bacterial protein synthesis); assay: E. coli S30 extract coupled transcription-translation luciferase assay (inhibition of bacterial protein synthesis); assay type: biochemical; conditions: read-out: S30 IC50 (μM/% inhib.)
Summary of the method: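 Coupled transcription-translation in E. coli S30 circular-DNA extract expressing luciferase from pBESTluc, with 8-point 2-fold compound dilutions; 1 hour at 37 °C, stopped at 4 °C. Luminescence read; % inhibition versus no-inhibitor wells, no-DNA wells as background.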

P. aeruginosa (Pa) = assay: Broth microdilution minimum inhibitory concentration (MIC), CLSI; assay type: cell-based; conditions: Pseudomonas aeruginosa, read-out: Pa MIC + bicarb
Summary of the method: (§1)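 CLSI broth microdilution with modification: 8-point two-fold compound dilutions in CAMHB, CAMHB plus 6.25 or 25 mM sodium bicarbonate, or CAMHB plus 0–50% heat-inactivated human serum. Inoculum 5×10^4 CFU/well from log-phase cultures adjusted to 0.5 McFarland; triplicate wells.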

A. baumannn (Ab) = assay: as above; assay type: cell-based; conditions: read-out: Ab + bicarb MIC
Summary of the method: as §1

S. aureus (Sa) = assay: as above; assay type: cell-based; conditions: Staphylococcus aureus, read-out: Sa + bicarb MIC
Summary of the method: as §1

E. coli (Ec) = assay: as above; assay type: cell-based; conditions: Escherichia coli, read-out: E. coli + bicarb MIC
Summary of the method: as §1

E. faecalis (Ef) = assay: as above; assay type: cell-based; conditions: Enterococcus faecalis, read-out: Ef + bicarb MIC
Summary of the method: as §1

[2] = molecular target: Rabbit Reticulocyte Lysate (eukaryotic protein synthesis); assay: Rabbit reticulocyte lysate luciferase assay (inhibition of eukaryotic protein synthesis); assay type: biochemical; conditions: read-out: Rabbit reticulocyte IC50 (μM/% inhib.)
Summary of the method: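 In vitro translation of luciferase control RNA in nuclease-treated rabbit reticulocyte lysate with amino acid mixture, compounds in 2-fold serial dilution, 90 minutes at 30° C. Luminescence read after luciferase reagent; % inhibition relative to water no-inhibitor controls, with no-RNA background wells.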

[3] = class by IC50 or % inhibition @ 1 μM
[4] = growth medium supplemented with sodium bicarbonate
[5] = growth medium with sodium bicarbonate
[6] = A. baumannn, growth medium with sodium bicarbonate

| Structure (SMILES) | IC50 [1, 3] [µM] | MIC (P. aeruginosa (Pa); [4]) [mg/L] | MIC (A. baumannn (Ab); Acinetobacter baumannii) [mg/L] | MIC (S. aureus (Sa); [4]) [mg/L] | MIC (E. coli (Ec); [4]) [mg/L] | MIC (E. faecalis (Ef); [4]) [mg/L] | IC50 [2, 3] [µM] | IC50 ([1]; % inhibition @ 1 μM) [µM] | MIC (P. aeruginosa (Pa); [5]) [mg/L] | MIC (A. baumannn (Ab); [6]) [mg/L] | MIC (S. aureus (Sa); [5]) [mg/L] | MIC (E. coli (Ec); [5]) [mg/L] | MIC (E. faecalis (Ef); [5]) [mg/L] | IC50 ([2]; % inhibition @ 1 μM) [µM] |
| --- | --- | --- | --- | --- | --- | --- | --- | --- | --- | --- | --- | --- | --- | --- |
| COc1cc(-n2ccc(NC(=O)N3CCN(C(=O)C(C)(C)N)CC3)nc2=O)ccc1CCN1CC2CC2(CN)C1 (centres unmarked) [Compound 133] | < 0.5 | > 32 | > 32 | 8 to 32 | < 8 | 8 to 32 | ≥ 1 | – | – | – | – | – | – | – |
| NCC1CN(C(=O)Nc2ccn(-c3ccc(CN4C[C@@H]5[C@@H](N)[C@@H]5C4)cc3)c(=O)n2)C1 [Compound 254] | – | – | – | – | – | – | – | 0.5 to 1 | > 32 | > 32 | > 32 | 8 to 32 | > 32 | ≥ 1 |
| CNC[C@@H]1[C@H]2CN(C(C)Cc3ccc(-n4ccc(NC(=O)N5CCN(C(=O)C(C)(C)N)CC5)nc4=O)cc3)C[C@@H]12 (some centres unmarked) [Compound 138] | 0.5 to 1 | > 32 | > 32 | < 8 | < 8 | 8 to 32 | ≥ 1 | – | – | – | – | – | – | – |
| CC(C)(N)C(=O)N1CCN(C(=O)Nc2ccn(-c3ccc(CCNC4CC5(CC(N)C5)C4)cc3)c(=O)n2)CC1 (centres unmarked) [Compound 177] | – | – | – | – | – | – | – | ≥ 1 | > 32 | > 32 | < 8 | < 8 | 8 to 32 | ≥ 1 |
| CC(C)(N)C(=O)N1CCN(C(=O)Nc2ccn(-c3ccc(CCN4CCC5CC5(N)C4)c(F)c3)c(=O)n2)CC1 (centres unmarked) [Compound 100] | < 0.5 | > 32 | 8 to 32 | < 8 | < 8 | < 8 | ≥ 1 | – | – | – | – | – | – | – |
| CC(COc1ccc(-n2ccc(NC(=O)N3CCN(C(=O)C(C)(C)N)CC3)nc2=O)cc1)N1C[C@@H]2[C@@H](CN)[C@@H]2C1 (some centres unmarked) [Compound 188] | – | – | – | – | – | – | – | < 0.5 | 8 to 32 | 8 to 32 | < 8 | < 8 | < 8 | ≥ 1 |
| CC(C)(N)C(=O)N1CCN(C(=O)Nc2ccn(-c3ccc(CCN4C[C@@H]5[C@@H](CN)[C@@H]5C4)c(C(F)(F)F)c3)c(=O)n2)CC1 [Compound 102] | < 0.5 | 8 to 32 | > 32 | < 8 | < 8 | 8 to 32 | ≥ 1 | – | – | – | – | – | – | – |
| CC(C)(N)C(=O)N1C[C@H]2CN(C(=O)Nc3ccn(-c4ccc(CN5C[C@@H]6[C@@H](N)[C@@H]6C5)cc4)c(=O)n3)C[C@H]2C1 [Compound 246] | – | – | – | – | – | – | – | ≥ 1 | > 32 | > 32 | > 32 | > 32 | > 32 | ≥ 1 |
| CC(CN1C[C@@H]2[C@@H](CN)[C@@H]2C1)Oc1ccc(-n2ccc(NC(=O)N3CCN(C(=O)C(C)(C)N)CC3)nc2=O)cc1 (some centres unmarked) [Compound 186] | – | – | – | – | – | – | – | < 0.5 | > 32 | 8 to 32 | < 8 | < 8 | < 8 | ≥ 1 |
| CC(Cc1ccc(-n2ccc(NC(=O)N3CCN(C(=O)C(C)(C)N)CC3)nc2=O)cc1C(F)(F)F)N1C[C@@H]2[C@@H](N)[C@@H]2C1 (some centres unmarked) [Compound 209] | – | – | – | – | – | – | – | ≥ 1 | > 32 | > 32 | > 32 | > 32 | > 32 | ≥ 1 |
| CC(Cc1ccc(-n2ccc(NC(=O)N3CCN(C(=O)C(C)(C)N)CC3)nc2=O)cc1)N1C[C@@H]2[C@H](C1)[C@H]2C(N)=O (some centres unmarked) [Compound 136] | ≥ 1 | > 32 | > 32 | > 32 | > 32 | > 32 | ≥ 1 | – | – | – | – | – | – | – |
| CC(C)(N)C(=O)N1CCN(C(=O)Nc2ccn(-c3ccc(CN4CC5CC(N)C5C4)cc3)c(=O)n2)CC1 (centres unmarked) [Compound 42] | < 0.5 | > 32 | > 32 | 8 to 32 | < 8 | 8 to 32 | ≥ 1 | – | – | – | – | – | – | – |
| CC(C)(N)C(=O)N1CCN(C(=O)Nc2ccn(-c3ccc(CN4C[C@@H]5[C@@H](N)[C@@H]5C4)cc3)c(=O)n2)CC1 [Compound 65] | < 0.5 | > 32 | 8 to 32 | < 8 | < 8 | < 8 | ≥ 1 | – | – | – | – | – | – | – |
| CC(C)(N)C(=O)N1CCN(C(=O)Nc2ccn(-c3cccc(CCN4C[C@H]5C[C@@]5(N)C4)c3)c(=O)n2)CC1 [Compound 144] | ≥ 1 | > 32 | > 32 | > 32 | 8 to 32 | > 32 | ≥ 1 | – | – | – | – | – | – | – |
| CC(Cc1ccc(-n2ccc(NC(=O)N3CCN(C(=O)C4(N)CCC4)CC3)nc2=O)cc1)N1C[C@@H]2[C@@H](CN)[C@@H]2C1 (some centres unmarked) [Compound 229] | – | – | – | – | – | – | – | ≥ 1 | > 32 | > 32 | > 32 | 8 to 32 | > 32 | ≥ 1 |
| CC(Cc1ccc(-n2ccc(NC(=O)N3CCN(C(=O)C(C)(C)N)CC3)nc2=O)cc1)N1CCC2(CC1)CNC2 (centres unmarked) [Compound 163] | – | – | – | – | – | – | – | ≥ 1 | > 32 | > 32 | < 8 | < 8 | > 32 | ≥ 1 |
| CCCC(Cc1ccc(-n2ccc(NC(=O)N3CCN(C(=O)C(C)(C)N)CC3)nc2=O)cc1)N1C[C@@H]2[C@@H](CN)[C@@H]2C1 (some centres unmarked) [Compound 150] | < 0.5 | < 8 | < 8 | < 8 | < 8 | < 8 | ≥ 1 | – | – | – | – | – | – | – |
| CC(Cc1ccc(-n2ccc(NC(=O)N3CCN(C(=O)C(C)(C)N)CC3)nc2=O)cc1)N(CCO)C1CC2(CC(N)C2)C1 (centres unmarked) [Compound 197] | – | – | – | – | – | – | – | ≥ 1 | > 32 | > 32 | < 8 | < 8 | 8 to 32 | ≥ 1 |
| CC(C)(N)C(=O)N1CCN(C(=O)Nc2ccn(-c3ccc(CN4CCC5(CC4)CNC5)cc3)c(=O)n2)CC1 [Compound 83] | 0.5 to 1 | > 32 | > 32 | < 8 | < 8 | > 32 | ≥ 1 | – | – | – | – | – | – | – |
| Cc1cc(-n2ccc(NC(=O)N3CCN(C(=O)C(C)(C)N)CC3)nc2=O)ccc1CCN1C[C@@H]2[C@@H](CN)[C@@H]2C1 [Compound 126] | < 0.5 | 8 to 32 | 8 to 32 | < 8 | < 8 | 8 to 32 | ≥ 1 | – | – | – | – | – | – | – |
